The source made the active and inactive calls. The calls are words filed in the database; no cut-off is given here.
How the values were obtained:
[1] = biological target: Proteinase-activated receptor 2 (Homo sapiens) (UniProt P55085); assay: Agonist activity at PAR2 in human HT-29 cells assessed as induction of ca2+ release at 10 uM after 1 hr by FLIPR assay relative to 2f-LIGRLO-NH2; format: cell-based
[2] = biological target: Proteinase-activated receptor 2 (Homo sapiens) (UniProt P55085); assay: Antagonist activity at PAR2 in human HT-29 cells assessed as inhibition of 2f-LIGRLO-NH2-induced ca2+ release at 1 uM preincubated for 15 mins measured after 1 hr by FLIPR assay; format: cell-based
[3] = biological target: T1, Proteinase-activated receptor 2 (Homo sapiens, UniProt P55085); assay: Antagonist activity at PAR2 in human HT-29 cells assessed as inhibition of 2f-LIGRLO-NH2-induced ca2+ release preincubated for 15 mins measured after 1 hr by FLIPR assay; format: cell-based; details: read-out: pIC50 (converted)
T1 sequence (P55085 whole entry): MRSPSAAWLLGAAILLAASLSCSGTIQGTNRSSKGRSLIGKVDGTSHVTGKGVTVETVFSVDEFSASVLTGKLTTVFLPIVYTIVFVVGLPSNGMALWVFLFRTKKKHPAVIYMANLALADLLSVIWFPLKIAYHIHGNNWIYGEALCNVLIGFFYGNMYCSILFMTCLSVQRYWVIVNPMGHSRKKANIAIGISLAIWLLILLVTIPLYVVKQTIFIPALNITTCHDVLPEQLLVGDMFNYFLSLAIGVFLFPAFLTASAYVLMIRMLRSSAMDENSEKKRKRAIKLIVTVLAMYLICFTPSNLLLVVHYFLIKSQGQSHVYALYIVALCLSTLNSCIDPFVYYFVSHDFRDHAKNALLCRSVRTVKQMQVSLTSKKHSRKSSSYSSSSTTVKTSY

[4] = biological target: T2, Proteinase-activated receptor 1 (Homo sapiens) (UniProt P25116); assay: Antagonist activity at PAR1 in human PC3 cells assessed as inhibition of TFLLR-induced ca2+ release at 100 uM preincubated for 15 mins measured after 1 hr by FLIPR assay; format: cell-based; details: PC-3
T2 sequence (whole entry): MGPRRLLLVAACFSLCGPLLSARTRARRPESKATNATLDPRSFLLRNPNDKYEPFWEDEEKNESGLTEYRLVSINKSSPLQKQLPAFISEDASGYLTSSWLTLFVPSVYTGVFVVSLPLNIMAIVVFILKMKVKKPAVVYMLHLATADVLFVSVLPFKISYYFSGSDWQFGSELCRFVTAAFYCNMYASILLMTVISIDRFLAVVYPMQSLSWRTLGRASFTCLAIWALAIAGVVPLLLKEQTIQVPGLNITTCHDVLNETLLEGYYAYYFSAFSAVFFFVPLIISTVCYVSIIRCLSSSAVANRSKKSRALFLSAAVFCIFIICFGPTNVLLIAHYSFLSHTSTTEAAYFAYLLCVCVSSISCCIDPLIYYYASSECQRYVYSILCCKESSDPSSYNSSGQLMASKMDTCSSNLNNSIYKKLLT

[5] = biological target: T1, Proteinase-activated receptor 2; assay: Antagonist activity at PAR2 in human HT-29 cells assessed as inhibition of trypsin-induced ca2+ release preincubated for 15 mins measured after 1 hr by FLIPR assay; format: cell-based; details: read-out: IC50
[6] = Tmax in Wistar rat at 10 mg/kg, po; format: ADME, organism-based; details: in vivo
[7] = biological target: T2, Proteinase-activated receptor 1 (Homo sapiens); assay: Antagonist activity at PAR1 in human PC3 cells assessed as inhibition of alpha-thrombin-induced ca2+ release at 100 uM preincubated for 15 mins measured after 1 hr by FLIPR assay; format: cell-based; details: PC-3
[8] = AUC (0 to 6 hrs) in Wistar rat at 10 mg/kg, po; format: ADME, organism-based; set-up: time < 6 hr, dose 10 mg/kg, route oral; details: in vivo
Rattus norvegicus [9] = assay: Antiinflammatory activity in Wistar rat assessed as inhibition of 2f-LIGRLO-NH2-induced paw edema at 10 mg/kg, po dosed 120 mins before 2f-LIGRLO-NH2 stimulation; format: functional, organism-based
Rattus norvegicus [10] = assay: Antiinflammatory activity in Wistar rat assessed as inhibition of 2f-LIGRLO-NH2-induced paw edema at 5 mg/kg, sc dosed 120 mins before 2f-LIGRLO-NH2 stimulation; format: functional, organism-based
[11] = Cmax in Wistar rat at 10 mg/kg, po; format: ADME, organism-based; set-up: dose 10 mg/kg, route oral; details: in vivo

| SMILES | Activity [1] | inhibition [2] | also measured |
| --- | --- | --- | --- |
| CC[C@H](C)[C@H](NC(=O)[C@H](CC1CCCCC1)NC(=O)c1ccno1)C(=O)NCc1cccc(OC(F)(F)F)c1 | 44% | 18% |  |
| CCOc1ccccc1CNC(=O)[C@@H](NC(=O)[C@H](CC1CCCCC1)NC(=O)c1ccno1)[C@@H](C)CC | 29% | 71% |  |
| CC[C@H](C)[C@H](NC(=O)[C@H](CC1CCCCC1)NC(=O)c1ccno1)C(=O)NCc1ccccc1C(F)(F)F | 42% | 57% |  |
| CC[C@H](C)[C@H](NC(=O)[C@H](CC1CCCCC1)NC(=O)c1ccno1)C(=O)NCc1ccccc1OC(C)C | 38% | 67% |  |
| CC[C@H](C)[C@H](NC(=O)[C@H](CC1CCCCC1)NC(=O)c1ccno1)C(=O)NCc1ccccc1[N+](=O)[O-] | 45% | 94% |  |
| CC[C@H](C)[C@H](NC(=O)[C@H](CC1CCCCC1)NC(=O)c1ccno1)C(=O)N1CCC2(C=Cc3ccccc32)CC1 | 16% | 54% | IC50 [3]: 1.26 µM; inhibition [4]: inactive; IC50 [5]: 9.6 µM; Tmax [6]: 2.78 h; inhibition [7]: inactive; AUC(0-t) at 6 h [8]: 3420 ng·h/mL; inhibition (Rattus norvegicus [9]): Active; inhibition (Rattus norvegicus [10]): Active; Cmax [11]: 1970 nM |
| CC[C@H](C)[C@H](NC(=O)[C@H](CC1CCCCC1)NC(=O)c1ccno1)C(=O)NCc1ccncc1 | 87% |  |  |
| CC[C@H](C)[C@H](NC(=O)[C@H](CC1CCCCC1)NC(=O)c1ccno1)C(=O)NCc1ccc2c(c1)OCO2 | 33% | 84% |  |
| CC[C@H](C)[C@H](NC(=O)[C@H](CC1CCCCC1)NC(=O)c1ccno1)C(=O)NCc1ccccn1 | 83% |  |  |
| CC[C@H](C)[C@H](NC(=O)[C@H](CC1CCCCC1)NC(=O)c1ccno1)C(=O)NCc1ccccc1F | 40% | 93% |  |
| CC[C@H](C)[C@H](NC(=O)[C@H](CC1CCCCC1)NC(=O)c1ccno1)C(=O)NCc1cccc(-c2ccccc2)c1 | 5% | 17% |  |
| CC[C@H](C)[C@H](NC(=O)[C@H](CC1CCCCC1)NC(=O)c1ccno1)C(=O)NCc1cccc2c1OCO2 | 46% | 90% |  |
| CCCCOc1ccccc1CNC(=O)[C@@H](NC(=O)[C@H](CC1CCCCC1)NC(=O)c1ccno1)[C@@H](C)CC | 1% | 8% |  |
| CC[C@H](C)[C@H](NC(=O)[C@H](CC1CCCCC1)NC(=O)c1ccno1)C(=O)NCc1cccc(OC)c1 | 32% | 98% |  |
| CC[C@H](C)[C@H](NC(=O)[C@H](CC1CCCCC1)NC(=O)c1ccno1)C(=O)NCc1cccc(F)c1 | 28% | 74% |  |
| CC[C@H](C)[C@H](NC(=O)[C@H](CC1CCCCC1)NC(=O)c1ccno1)C(=O)NCc1ccc(-c2ccccc2)cc1 | 6% | 0% |  |

— ChEMBL document CHEMBL3751717, “Benzylamide antagonists of protease activated receptor 2 with anti-inflammatory activity” (Bioorg Med Chem Lett, 2016)
